Results published in patent US20230348487A1, “2-AMINOPYRIMIDINE COMPOUND AND PHARMACEUTICAL COMPOSITION THEREOF AND APPLICATION THEREOF” (GUANGZHOU SALUSTIER BIOSCIENCES CO., LTD., priority 2021, published 2023).
pIC50: −log10 of the molar value. Where two headings read alike, the source gives them in different places.

Tests used:
[1] = test system: JAK3-STAT signaling in U937 cells; assay: Western blot of JAK3-STAT signaling in U937 cells; type: cell-based, human
Description: Cell line: human acute myeloid leukemia cell line U937
Time dependent experiment: the tested molecule LS6-45 was co-incubated with U937 cells at a fixed concentration (100 nM), and the total cell protein was extracted at a specific action time. Dose dependent experiment: After co-incubating the tested molecule LS6-45 at different concentrations with U937 cell line for 10 hours, the total cell protein was extracted. Suspended cells U937 were centrifuged to remove the supernatant, washed twice with PBS, and then added an appropriate amount of lysate mixture (RIPA lysate (strong): phosphatase inhibitor mixture (50×): PMSF=100:1:1), lysed for 30 minutes on ice, and centrifugated at 12000 rpm at 4° C. for 15 min). Took the supernatant and discarded the sediment. Took an appropriate amount of supernatant to measure the protein concentration by the BCA method. Then added loading buffer at a 5:1 ratio and boiled at 100° C. for 7 minutes to be used for Western Blot experiments or stored in a −80° C. freezer for later use.
The experimental results are shown in FIG. 4, wherein the Western Blot analysis of compound LS6-45 on JAK3, STAT3, STAT5 proteins and their time/dose-dependent phosphorylation was performed, and GAPDH was used as an internal reference. In FIG. 4, A represents the U937 cell line treated with compound LS6-45 (100 nM) in a time-dependent manner, while B represents the U937 cell line treated with compound LS6-45 in a dose-dependent manner for 10 hours (diluted at five concentrations of 800 nM 1:4).

[2] = Rat liver microsomes stability test; type: in vitro ADME; settings: for Remaining percentage: rat liver microsomes, average value; for CLint scaled at 1 µM / half-life at 1 µM: rat, liver microsomes, pH 7.4, rat liver microsomes
Description: Firstly, preheated 0.1 M potassium phosphate buffer with 5 mM MgCl2 (i.e. K/Mg buffer) at pH 7.4±0.1. Prepared the spiked solution for the tested compound and reference compound (500 μM spiked solution: added 5 μL of 10 mM stock solution into 95 μL of acetonitrile; 1.5 μM microsomal spiked solution (0.75 mg/mL): added 1.5 μL of 500 μM spiked solution and 18.75 μL of 20 mg/mL liver microsomes into 479.75 μL of K/Mg buffer). Then NADPH was dissolved in buffer K to prepare a 6 mM, 5 mg/mL NADPH stock solution. At different time points (0-, 5-, 15-, 30-, 45 minutes), 30 μL of 1.5 μM spiked solution containing 0.75 mg/mL of microsome solution was distributed onto the designated detection plate. At 0 min, 150 μL of acetonitrile containing internal standard (IS) was added to the 0 min plate well, followed by 15 μL of NADPH stock solution (6 mM). Then, all plates were pre-incubated at 37° C. for 5 minutes, added 15 μL of NADPH stock solution (6 mM), the reaction was initiated and timed. At 5 minutes, 15 minutes, 30 minutes, and 45 minutes, added 150 μL of acetonitrile solution containing IS to the corresponding wells to stop the reaction. After quenching, the plate was shaken for 10 minutes (600 rpm/min), followed by centrifugation at 6000 rpm/min for 15 minutes. 80 μL of supernatant of each well were transferred into a 96-well sample plate containing 140 μL of ultrapure water to perform LC/MS analysis. The analysis of biological samples and all samples were completed by the analysis laboratory of Medicipia Pharmaceutical Technology (Shanghai) Co., Ltd.

U937 cells = assay: Cell apoptosis detection in U937 cells; type: cell-based, human; settings: 48 hours
Description: Cell apoptosis detection: Took cells in good growth status and adjusted the density to 8×10^5 cells/mL, evenly distributed them into 6-well plates, 2 mL per well. Then the compound was diluted in gradient and added to the cell suspension, and placed in the incubator for 48 hours. PE coupled Annexin V apoptosis detection kit was used for staining in this experiment. After 48 hours, cells were collected into a 15 mL centrifuge tube, and the 6-well plate was washed twice with PBS. The washing solutions were merged into a 15 mL centrifuge tube, centrifuged at 1200 rpm for 5 minutes, and the supernatant was discarded. The cells were washed with 1.5 mL of cold PBS and resuspended and transferred to a 1.5 mL EP tube. Repeated washing with cold PBS once and after centrifugation at 1200 rpm for 5 minutes, discarded the supernatant. Added 100 μL of 1×Binding Buffer (PBS dilution) to resuspend the cells. Added 2.5 μL of Annexin V-PE and 2.5 μL 7-AAD, mixed gently and reacted at room temperature in the dark for 15 minutes. Added 400 μL of 1× Binding Buffer, and then perform detection with an up-flow cytometry within 1 hour. Note: It is necessary to set up a single label control tube with apoptotic cells, and sample tubes with the same conditions; place the stained samples on ice.

[3] = test system: human acute myeloid leukemia cell line U937; assay: CCK-8 in vitro proliferation inhibition; type: cell-based; settings: Homo sapiens, U-937, 72 hours, read-out: Inhibitory activity (IC50) on cell proliferation, U937
[4] = test system: human chronic myeloid leukemia cell line K562; assay: CCK-8 in vitro proliferation inhibition; type: cell-based; settings: Homo sapiens, K562, 72 hours, read-out: Inhibitory activity (IC50) on cell proliferation, K562

Q: Which “phosphorylation level of JAK3 (Western blot)” value ([1]; 50 nM, 10 hours) does the source give for `C=CC(=O)Nc1cc(Nc2ncc(Cl)c(O[C@@H]3CO[C@H]4[C@@H]3OC[C@H]4OC)n2)ccc1N(C)CCN(C)C` [LS 6-45] here?
A: significantly weakened

Q: What about the “phosphorylation level of JAK3 protein (Western blot)” value ([1]; 100 nM, 4 hours) of the same compound?
A: effectively reduced the phosphorylation level of JAK3 protein

Q: What about the “JAK3 phosphorylation (Western blot)” value ([1]; 100 nM, around 8 hours) of the same compound?
A: completely inhibited JAK3 phosphorylation

Q: And the “phosphorylation levels of downstream proteins STAT3 and STAT5” value ([1]; 100 nM, time course)?
A: weakened in a time-dependent manner

Q: And the “phosphorylation level of JAK3 (Western blot)” value ([1]; 200 nM, 10 hours)?
A: almost completely disappeared

Q: What about the “phosphorylation levels of downstream proteins STAT3 and STAT5” value ([1]; different concentrations, 10 hours) of the same compound?
A: dose-dependent weakening

Q: And the Remaining percentage ([2]; 0 min)?
A: 100.00%

Q: What about the Remaining percentage ([2]; 5 min) of the same compound?
A: 95.76%

Q: And the Remaining percentage ([2]; 15 min)?
A: 90.38%

Q: And the Remaining percentage ([2]; 30 min)?
A: 87.93%

Q: What about the Remaining percentage ([2]; 45 min) of the same compound?
A: 79.61%

Q: What about the CLint scaled at 1 µM ([2]; calculated value below the 20.70 limit, read-out: Clint (value in parentheses)) of the same compound?
A: 16.6 mL/min/kg

Q: And the half-life at 1 µM ([2]; calculated value beyond the 120 min limit, read-out: T1/2 (value in parentheses))?
A: 2.5 h

Q: And the CLint scaled at 1 µM ([2]; read-out: Clint)?
A: < 20.7 mL/min/kg

Q: What about the half-life at 1 µM ([2]; read-out: T1/2) of the same compound?
A: > 2 h

Q: What about the cell apoptosis (U937 cells) of the same compound?
A: No apoptosis was observed

Q: And the pIC50 [3]?
A: 7.69

Q: And the pIC50 [4]?
A: 6.47
